The NIST ThermoML archive (doi:10.1016/j.jct.2011.07.014)
± gives the expanded uncertainty stated by the source.

Conditions: Liquid, Transpiration method

CC(=O)CCC(=O)O [4-oxopentanoic acid]
Conditions | vapor or sublimation pressure [kPa]
328.4 K | 0.00705 ± 0.00038
333.4 K | 0.01045 ± 0.00054
338.3 K | 0.01414 ± 0.00074
343.3 K | 0.02096 ± 0.0011
343.4 K | 0.02019 ± 0.001
348.3 K | 0.02702 ± 0.0014
353.3 K | 0.0381 ± 0.002
358.3 K | 0.05278 ± 0.0027
358.4 K | 0.05148 ± 0.0027
363.4 K | 0.07587 ± 0.0039
368.4 K | 0.101 ± 0.0052
373.4 K | 0.1349 ± 0.0069
